Assays:
AML blasts = experiment: RPPA protein profiling in AML blasts during therapy; type: in vivo, human; conditions: samples from six patients
Protocol: In the AML study, a protein profiling analysis was carried out on primary blasts obtained from peripheral blood of patients (n = 6) before and during therapy with AZD1208. Due to time-sensitive aspects of the analysis, only patients from the MD Anderson Cancer Center (MDACC, Houston, TX, USA) were eligible. Whole blood was collected in heparinised tubes. Leukaemia cells were then isolated using Ficoll–Hypaque (specific gravity, 1.086; Life Technologies, Grand Island, NY, USA) density gradient separation, as previously described.[15] Cell number and mean cell volume were determined using a Coulter Channelyzer (Coulter Electronics, Hialeah, FL, USA).
AML blasts isolated from patients during therapy with AZD1208 were harvested and submitted for reverse phase protein array (RPPA) analysis to evaluate protein level changes across a set of 171 antibodies,[16] graphed using GraphPad Prism software (GraphPad Software, Inc., San Diego, CA, USA).

[1] = AML dose-escalation study: pharmacokinetics (plasma, urine); type: in vivo, human
Protocol: The schedules for collection of blood and urine samples for PK analyses in each cohort in both studies are described in Supplementary Table 1. When necessary for clinical response assessment in the AML study, a bone marrow sample for PK analysis was collected at Cycle 1, Day 28.
The concentration of AZD1208 in plasma and urine was determined by Covance, on behalf of Clinical Bioanalysis Alliance at AstraZeneca R&D, using a bioanalytical method. A volume of 0.05 ml of K2EDTA human plasma sample was extracted by liquid–liquid extraction using 0.7 ml of methyl tert-butyl ether. Approximately 100 µl of the supernatant was transferred, evaporated to dryness and reconstituted with 350 µl of 1:1 methanol:water, and a 5 µl injection was made to the high-performance liquid chromatography (HPLC) column. HPLC separations were performed on a Phenomenex LUNA C18 (50 × 2 mm, 5 µm) column using a mobile phase of 0.1% formic acid in water (A) and 0.1% formic acid in acetonitrile (B) at a flow rate of 0.6 ml/min and a column temperature of 40 °C. AZD1208-D5 was used as the internal standard. Detection was performed in a Sciex API4000 mass spectrometer, in a positive electrospray ionisation mode, using multiple reaction monitoring detection (AZD1208: 380.0–>248.1; AZD1208-D5: 385.0–>253.1).

N[C@@H]1CCCN(c2c(/C=C3\SC(=O)NC3=O)cccc2-c2ccccc2)C1 [AZD1208]
Patients with reductions in 4E-BP1 S65 (RPPA) (AML blasts): three | Patients with reductions in BAD S112 (RPPA) (AML blasts): four | Percentage of patients with a lower accumulation ratio ([1]; 240 mg): 0% | Percentage of patients with a lower accumulation ratio ([1]; 900 mg): 67% | Patients with significantly lower exposure at steady state compared with the first dose ([1]; 120–900 mg doses, 4/16 patients): 25% | Dose proportionality of Cmax and AUC0–24 ([1]; Cycle 1, Day 1): dose proportional | Tmax, median ([1]; Cycle 1, Day 1, 120 mg, n=3): 2.42 h | Tmax, median ([1]; Cycle 1, Day 1, 240 mg, n=6): 2.20 h | Tmax, median ([1]; Cycle 1, Day 1, 480 mg, n=6): 3.17 h | Tmax, median ([1]; Cycle 1, Day 1, 700 mg, n=7): 3.05 h | Tmax, median ([1]; Cycle 1, Day 1, 900 mg, n=9): 3.20 h | Gmean plasma concentration of AZD1208 (± SD) ([1]; Cycle 1, Day 1, 0.5 h post-dose, 120 mg, n=3): 85.8 (40.1, 183.9) ng ml | Gmean plasma concentration of AZD1208 (± SD) ([1]; Cycle 1, Day 1, 0.5 h post-dose, 240 mg, n=6): 158.3 (14.4, 1740.3) ng ml | Gmean plasma concentration of AZD1208 (± SD) ([1]; Cycle 1, Day 1, 0.5 h post-dose, 480 mg, n=6): 124.3 (67.6, 228.6) ng ml | Gmean plasma concentration of AZD1208 (± SD) ([1]; Cycle 1, Day 1, 0.5 h post-dose, 700 mg, n=7): 386.8 (93.3, 1603.6) ng ml | Gmean plasma concentration of AZD1208 (± SD) ([1]; Cycle 1, Day 1, 0.5 h post-dose, 900 mg, n=9): 251.5 (90.7, 697.2) ng ml | Gmean plasma concentration of AZD1208 (± SD) ([1]; Cycle 1, Day 1, 1 h post-dose, 120 mg, n=3): 321.3 (187.8, 549.9) ng ml | Gmean plasma concentration of AZD1208 (± SD) ([1]; Cycle 1, Day 1, 1 h post-dose, 240 mg, n=6): 540.4 (133.8, 2182.4) ng ml | Gmean plasma concentration of AZD1208 (± SD) ([1]; Cycle 1, Day 1, 1 h post-dose, 480 mg, n=6): 573.0 (248.3, 1322.0) ng ml | Gmean plasma concentration of AZD1208 (± SD) ([1]; Cycle 1, Day 1, 1 h post-dose, 700 mg, n=7): 883.8 (351.6, 2221.7) ng ml | Gmean plasma concentration of AZD1208 (± SD) ([1]; Cycle 1, Day 1, 1 h post-dose, 900 mg, n=9): 921.4 (373.1, 2275.6) ng ml | Gmean plasma concentration of AZD1208 (± SD) ([1]; Cycle 1, Day 1, 1.5 h post-dose, 120 mg, n=3): 774.5 (422.1, 1421.3) ng ml | Gmean plasma concentration of AZD1208 (± SD) ([1]; Cycle 1, Day 1, 1.5 h post-dose, 240 mg, n=6): 1098.6 (620.9, 1943.7) ng ml | Gmean plasma concentration of AZD1208 (± SD) ([1]; Cycle 1, Day 1, 1.5 h post-dose, 480 mg, n=6): 1243.2 (485.9, 3181.1) ng ml | Gmean plasma concentration of AZD1208 (± SD) ([1]; Cycle 1, Day 1, 1.5 h post-dose, 700 mg, n=7): 1849.6 (783.5, 4366.4) ng ml | Gmean plasma concentration of AZD1208 (± SD) ([1]; Cycle 1, Day 1, 1.5 h post-dose, 900 mg, n=9): 2106.0 (860.5, 5154.2) ng ml | Gmean plasma concentration of AZD1208 (± SD) ([1]; Cycle 1, Day 1, 2 h post-dose, 120 mg, n=3): 779.9 (508.9, 1195.3) ng ml | Gmean plasma concentration of AZD1208 (± SD) ([1]; Cycle 1, Day 1, 2 h post-dose, 240 mg, n=6): 1388.6 (1074.3, 1744.9) ng ml | Gmean plasma concentration of AZD1208 (± SD) ([1]; Cycle 1, Day 1, 2 h post-dose, 480 mg, n=6): 1852.3 (781.9, 4387.6) ng ml | Gmean plasma concentration of AZD1208 (± SD) ([1]; Cycle 1, Day 1, 2 h post-dose, 700 mg, n=7): 2640.6 (1438.6, 4847.0) ng ml | Gmean plasma concentration of AZD1208 (± SD) ([1]; Cycle 1, Day 1, 2 h post-dose, 900 mg, n=9): 3553.2 (2352.6, 5366.6) ng ml | Gmean plasma concentration of AZD1208 (± SD) ([1]; Cycle 1, Day 1, 3 h post-dose, 120 mg, n=3): 715.6 (415.5, 1232.6) ng ml | Gmean plasma concentration of AZD1208 (± SD) ([1]; Cycle 1, Day 1, 3 h post-dose, 240 mg, n=6): 1299.5 (967.1, 1746.2) ng ml | Gmean plasma concentration of AZD1208 (± SD) ([1]; Cycle 1, Day 1, 3 h post-dose, 480 mg, n=6): 2865.4 (1884.8, 4356.2) ng ml | Gmean plasma concentration of AZD1208 (± SD) ([1]; Cycle 1, Day 1, 3 h post-dose, 700 mg, n=7): 3112.3 (1814.6, 5337.9) ng ml | Gmean plasma concentration of AZD1208 (± SD) ([1]; Cycle 1, Day 1, 3 h post-dose, 900 mg, n=9): 3574.9 (1521.4, 8400.4) ng ml | Gmean plasma concentration of AZD1208 (± SD) ([1]; Cycle 1, Day 1, 6 h post-dose, 120 mg, n=3): 546.6 (356.7, 837.6) ng ml | Gmean plasma concentration of AZD1208 (± SD) ([1]; Cycle 1, Day 1, 6 h post-dose, 240 mg, n=6): 1004.2 (822.5, 1226.0) ng ml | Gmean plasma concentration of AZD1208 (± SD) ([1]; Cycle 1, Day 1, 6 h post-dose, 480 mg, n=6): 2642.0 (1774.2, 3934.4) ng ml | Gmean plasma concentration of AZD1208 (± SD) ([1]; Cycle 1, Day 1, 6 h post-dose, 700 mg, n=7): 2846.5 (2115.2, 3830.6) ng ml | Gmean plasma concentration of AZD1208 (± SD) ([1]; Cycle 1, Day 1, 6 h post-dose, 900 mg, n=9): 4252.0 (2883.8, 6269.4) ng ml | Gmean plasma concentration of AZD1208 (± SD) ([1]; Cycle 1, Day 1, 8 h post-dose, 120 mg, n=3): 481.6 (308.4, 752.3) ng ml | Gmean plasma concentration of AZD1208 (± SD) ([1]; Cycle 1, Day 1, 8 h post-dose, 240 mg, n=6): 950.3 (825.3, 1094.2) ng ml | Gmean plasma concentration of AZD1208 (± SD) ([1]; Cycle 1, Day 1, 8 h post-dose, 480 mg, n=6): 2249.0 (1520.2, 3327.1) ng ml | Gmean plasma concentration of AZD1208 (± SD) ([1]; Cycle 1, Day 1, 8 h post-dose, 700 mg, n=7): 3284.7 (2253.3, 4788.2) ng ml | Gmean plasma concentration of AZD1208 (± SD) ([1]; Cycle 1, Day 1, 8 h post-dose, 900 mg, n=9): 3882.9 (2438.1, 6184.0) ng ml | Gmean plasma concentration of AZD1208 (± SD) ([1]; Cycle 1, Day 1, 24 h post-dose, 120 mg, n=3): 199.0 (75.6, 524.0) ng ml | Gmean plasma concentration of AZD1208 (± SD) ([1]; Cycle 1, Day 1, 24 h post-dose, 240 mg, n=6): 844.5 (598.4, 1191.8) ng ml | Gmean plasma concentration of AZD1208 (± SD) ([1]; Cycle 1, Day 1, 24 h post-dose, 480 mg, n=6): 2169.6 (1161.6, 4052.3) ng ml | Gmean plasma concentration of AZD1208 (± SD) ([1]; Cycle 1, Day 1, 24 h post-dose, 900 mg, n=9): 3045.2 (1664.2, 5572.3) ng ml | Gmean plasma concentration of AZD1208 (± SD) ([1]; Cycle 1, Day 1, pre-dose, 240 mg, n=6): 76.9 (NC) ng ml

From paper PMC5988656, “Phase I studies of AZD1208, a proviral integration Moloney virus kinase inhibitor in solid and haematological cancers” (British Journal of Cancer, 2018)
